Experimental data as given in patent publication US8956824B2, “Methods for identifying allosteric modulators of ship polypeptides” (British Columbia Cancer Agency Branch, priority 2006, dated 2015).
Entries after “also recorded” stand apart in the source; their conditions may differ.

Assays:
[1] = system: SHIP1+/+ and SHIP1−/− BMmφs; assay: LPS-stimulated TNFα production in BMmφs; assay type: cell-based, mouse; details: 30 min pretreatment, 10 ng/mL LPS, ELISA
Protocol: Production of SHIP+/+ and SHIP-/- BMMCs and BMnφs. […] LPS stimulation of BMmφs. For the analysis of LPS-stimulated TNFα production, 2 ×10^5 cells were plated the night before in 24 well plates in BMmφp medium. […] Data are expressed as the mean +/- SEM of triplicates and experiments were repeated 3 times. For analysis of intracellular signaling, 2×10^6 cells were plated the night before in 6 cm tissue culture plates. […] Cells were washed with 4° C. PBS and resuspended in lysis buffer (50 mM Hepes, 2 mM EDTA, 1mM NaVO4 , 100 mM NaF, 50 mM NaPPi and 1%NP4O) supplemented with COMPLETETM Protease Inhibitor Cocktail (Roche, Montreal, Canada). Lysates were rocked at 4° C. for 30 min and clarified by centrifuging 20 min at 12000×g. Lysates were then made 1× in Laemmli's buffer, boiled 2 min and loaded onto 7.5% SDS polyacrylamide […]. Immunoblot analysis for phospho PKB (Cell Signalling, Mississauga, Ont), SHIP1 and actin (Santa Cruz, Santa Cruz, Calif.) were carried out as described previously (18). Results are representative of 3 independent experiments.

[2] = target: T1, C2 domain deleted (ΔC2) SHIP1 enzyme (Mus musculus, UniProt Q9ES52, DEL725-860/G861A/K862A/M863A); assay: In vitro SHIP enzyme assay, C2 domain deleted SHIP1; assay type: biochemical; details: FIG. 4B, FIG. 10
T1 construct: Full length, wild-type SHIP1 enzyme (wt) or SHIP1 enzyme in which the PH or C2 domains were deleted; made in house; 293T cells are stated only for the wild-type enzyme
T1 sequence (Q9ES52 with tags, fused parts or gaps DEL725-860/G861A/K862A/M863A limits assumed): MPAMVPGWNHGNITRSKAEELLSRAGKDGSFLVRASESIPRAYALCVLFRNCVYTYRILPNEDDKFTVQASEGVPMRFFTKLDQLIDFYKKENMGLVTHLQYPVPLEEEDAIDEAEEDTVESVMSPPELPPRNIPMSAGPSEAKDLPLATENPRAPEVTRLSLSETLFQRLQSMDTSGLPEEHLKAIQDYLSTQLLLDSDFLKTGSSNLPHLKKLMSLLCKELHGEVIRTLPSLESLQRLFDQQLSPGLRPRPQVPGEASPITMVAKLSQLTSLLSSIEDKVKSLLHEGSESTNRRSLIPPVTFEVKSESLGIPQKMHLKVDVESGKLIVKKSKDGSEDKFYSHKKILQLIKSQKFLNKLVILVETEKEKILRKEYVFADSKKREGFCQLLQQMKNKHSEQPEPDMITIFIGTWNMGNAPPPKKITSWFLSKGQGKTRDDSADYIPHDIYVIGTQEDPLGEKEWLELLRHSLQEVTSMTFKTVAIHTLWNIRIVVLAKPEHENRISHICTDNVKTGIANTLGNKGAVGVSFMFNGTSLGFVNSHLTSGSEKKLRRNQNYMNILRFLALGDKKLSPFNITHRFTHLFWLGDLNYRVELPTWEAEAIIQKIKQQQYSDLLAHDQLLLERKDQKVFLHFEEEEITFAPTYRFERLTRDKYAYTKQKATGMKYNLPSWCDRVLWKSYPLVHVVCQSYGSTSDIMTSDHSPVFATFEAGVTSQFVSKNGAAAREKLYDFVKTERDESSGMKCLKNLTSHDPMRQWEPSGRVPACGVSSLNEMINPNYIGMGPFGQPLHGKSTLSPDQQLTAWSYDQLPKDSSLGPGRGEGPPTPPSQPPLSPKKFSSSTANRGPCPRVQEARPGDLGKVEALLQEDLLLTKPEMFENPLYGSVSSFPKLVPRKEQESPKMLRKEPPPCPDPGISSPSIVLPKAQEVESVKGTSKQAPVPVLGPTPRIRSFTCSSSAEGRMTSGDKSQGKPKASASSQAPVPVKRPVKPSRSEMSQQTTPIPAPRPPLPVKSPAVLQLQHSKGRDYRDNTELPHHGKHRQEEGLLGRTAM
Source text: The mouse SHIP1 ΔC2 domain deletion mutant was generated by a standard PCR-based methodology using the primer pairs listed above, which in addition to being complementary to sequences immediately upstream and downstream of the C2 domain (amino acid residues 725 to 863), introduces a NotI restriction site. The PCR-products were digested with ClaI and NotI, and NotI and XbaI for the upstream and downstream fragments, respectively. Products were then resolved and imaged on a 1% agarose gel containing ethidium bromide and the appropriate sized fragments excised and purified using a column gel extraction kit (Qiagen, Mississauga, ON). In parallel, pME18S plasmid containing the cDNA for N-terminal His6-tagged SHIP1 was digested with ClaI and NotI, resolved and purified as before. Upstream fragment, downstream fragment and digested pME18S-SHIP plasmid were ligated to yield a plasmid coding for SHIP1 with the C2 domain deleted. An N-terminal His6 C2 domain was also generated by PCR using the primer pair indicated above and the resulting product inserted into the pET28C bacterial expression vector using EcoRI and NdeI restriction sites.
In vitro SHIP enzyme assay. The SHIP enzyme assay was performed in 96-well microtitre plates with 10 ng of enzyme/well in a total volume of 25 μL of 20 mM Tris HCl, pH 7.5 and 10 mM MgCl2. SHIP1 enzyme was incubated with test extracts (provided in DMSO) or vehicle for 15 mM at 23° C. before the addition of 100 μM inositol-1,3,4,5-tetrakisphosphate (Echelon Biosciences Inc, Salt Lake City, Utah). The reaction was allowed to proceed for 20 min at 37° C. and the amount of inorganic phosphate released assessed by the addition of Malachite Green reagent followed by an absorbance measurement at 650 nm (15). SHIP2 enzyme was purchased from Echelon Biosciences (Salt Lake City, Utah) and an equivalent amount of inositol phosphatase activity was used in the in vitro enzyme assay. Enzyme data are expressed as the mean of triplicates+/−SEM. Experiments were performed at least 3 times.

| Molecule | LPS-stimulated TNFα production, SHIP1+/+ vs SHIP1−/− macrophages [1] | activation of SHIP1 with C2 domain deleted [2] | activation of SHIP1 with C2 domain deleted ([2]; listed as PI(3,4)P2) |
| --- | --- | --- | --- |
| Cc1cc(O)c(O)c2c1[C@]1(C)CC[C@H]3C(C)(C)CCC[C@]3(C)[C@H]1C2 [AQX-016A] | preferentially inhibited LPS-stimulated TNFα production in SHIP1+/+ than in SHIP1−/− |  |  |
| Cc1cc(O)cc2c1[C@]1(C)CC[C@H]3C(C)(C)CCC[C@]3(C)[C@H]1C2 [AQX-MN100] | selectively inhibited TNFα production from SHIP1+/+ but not SHIP1−/− macrophages; also recorded: inhibits TNFα production from LPS stimulated SHIP1+/+ but not −/− BMmφs | impaired the ability of SHIP1 to be activated; also recorded: abrogates the ability of SHIP1 to be activated |  |
| phosphatidylinositol-3,4-bisphosphate [PI-3,4-P2, reference compound] |  | impaired the ability of SHIP1 to be activated | abrogates ability to be activated |
